Experimental data reported in patent publication US20160289186A1, “FLUOROMETHYL-SUBSTITUTED PYRROLE CA[…]” (Grunenthal GmbH, priority 2013, published 2016).

Target: T1, Human CaV2.2 channels (Homo sapiens, UniProt Q00975)
T1 construct: expressed in transfected cells; host or cells: HEK293
Experiment: Fluorescent (FLIPR) assay for CaV2.2 channels using potassium depolarization to induce channel opening
Type: cell-based
Details: 3 μM compound; 30 mM KCl assay buffer (inactivated channel state); HEK293 cells stably expressing human CaV2.2; read-out: Activity Category: %-Inhib (CaV2.2) @3 μM @30 mM KCl
Summary of the method: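 HEK293 cells stably co-expressing human CaV2.2 with α2δ and β subunits plus Kir2.3, Fluo-4 loaded; compounds preincubated 15 min at 25 °C in 1 mM or 30 mM KCl buffer (inactivated state), pH 7.4. Depolarized by KCl addition; baseline-normalized peak fluorescence (ex 480/em 535 nm) gave inhibition.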

T1 sequence (Q00975 whole entry): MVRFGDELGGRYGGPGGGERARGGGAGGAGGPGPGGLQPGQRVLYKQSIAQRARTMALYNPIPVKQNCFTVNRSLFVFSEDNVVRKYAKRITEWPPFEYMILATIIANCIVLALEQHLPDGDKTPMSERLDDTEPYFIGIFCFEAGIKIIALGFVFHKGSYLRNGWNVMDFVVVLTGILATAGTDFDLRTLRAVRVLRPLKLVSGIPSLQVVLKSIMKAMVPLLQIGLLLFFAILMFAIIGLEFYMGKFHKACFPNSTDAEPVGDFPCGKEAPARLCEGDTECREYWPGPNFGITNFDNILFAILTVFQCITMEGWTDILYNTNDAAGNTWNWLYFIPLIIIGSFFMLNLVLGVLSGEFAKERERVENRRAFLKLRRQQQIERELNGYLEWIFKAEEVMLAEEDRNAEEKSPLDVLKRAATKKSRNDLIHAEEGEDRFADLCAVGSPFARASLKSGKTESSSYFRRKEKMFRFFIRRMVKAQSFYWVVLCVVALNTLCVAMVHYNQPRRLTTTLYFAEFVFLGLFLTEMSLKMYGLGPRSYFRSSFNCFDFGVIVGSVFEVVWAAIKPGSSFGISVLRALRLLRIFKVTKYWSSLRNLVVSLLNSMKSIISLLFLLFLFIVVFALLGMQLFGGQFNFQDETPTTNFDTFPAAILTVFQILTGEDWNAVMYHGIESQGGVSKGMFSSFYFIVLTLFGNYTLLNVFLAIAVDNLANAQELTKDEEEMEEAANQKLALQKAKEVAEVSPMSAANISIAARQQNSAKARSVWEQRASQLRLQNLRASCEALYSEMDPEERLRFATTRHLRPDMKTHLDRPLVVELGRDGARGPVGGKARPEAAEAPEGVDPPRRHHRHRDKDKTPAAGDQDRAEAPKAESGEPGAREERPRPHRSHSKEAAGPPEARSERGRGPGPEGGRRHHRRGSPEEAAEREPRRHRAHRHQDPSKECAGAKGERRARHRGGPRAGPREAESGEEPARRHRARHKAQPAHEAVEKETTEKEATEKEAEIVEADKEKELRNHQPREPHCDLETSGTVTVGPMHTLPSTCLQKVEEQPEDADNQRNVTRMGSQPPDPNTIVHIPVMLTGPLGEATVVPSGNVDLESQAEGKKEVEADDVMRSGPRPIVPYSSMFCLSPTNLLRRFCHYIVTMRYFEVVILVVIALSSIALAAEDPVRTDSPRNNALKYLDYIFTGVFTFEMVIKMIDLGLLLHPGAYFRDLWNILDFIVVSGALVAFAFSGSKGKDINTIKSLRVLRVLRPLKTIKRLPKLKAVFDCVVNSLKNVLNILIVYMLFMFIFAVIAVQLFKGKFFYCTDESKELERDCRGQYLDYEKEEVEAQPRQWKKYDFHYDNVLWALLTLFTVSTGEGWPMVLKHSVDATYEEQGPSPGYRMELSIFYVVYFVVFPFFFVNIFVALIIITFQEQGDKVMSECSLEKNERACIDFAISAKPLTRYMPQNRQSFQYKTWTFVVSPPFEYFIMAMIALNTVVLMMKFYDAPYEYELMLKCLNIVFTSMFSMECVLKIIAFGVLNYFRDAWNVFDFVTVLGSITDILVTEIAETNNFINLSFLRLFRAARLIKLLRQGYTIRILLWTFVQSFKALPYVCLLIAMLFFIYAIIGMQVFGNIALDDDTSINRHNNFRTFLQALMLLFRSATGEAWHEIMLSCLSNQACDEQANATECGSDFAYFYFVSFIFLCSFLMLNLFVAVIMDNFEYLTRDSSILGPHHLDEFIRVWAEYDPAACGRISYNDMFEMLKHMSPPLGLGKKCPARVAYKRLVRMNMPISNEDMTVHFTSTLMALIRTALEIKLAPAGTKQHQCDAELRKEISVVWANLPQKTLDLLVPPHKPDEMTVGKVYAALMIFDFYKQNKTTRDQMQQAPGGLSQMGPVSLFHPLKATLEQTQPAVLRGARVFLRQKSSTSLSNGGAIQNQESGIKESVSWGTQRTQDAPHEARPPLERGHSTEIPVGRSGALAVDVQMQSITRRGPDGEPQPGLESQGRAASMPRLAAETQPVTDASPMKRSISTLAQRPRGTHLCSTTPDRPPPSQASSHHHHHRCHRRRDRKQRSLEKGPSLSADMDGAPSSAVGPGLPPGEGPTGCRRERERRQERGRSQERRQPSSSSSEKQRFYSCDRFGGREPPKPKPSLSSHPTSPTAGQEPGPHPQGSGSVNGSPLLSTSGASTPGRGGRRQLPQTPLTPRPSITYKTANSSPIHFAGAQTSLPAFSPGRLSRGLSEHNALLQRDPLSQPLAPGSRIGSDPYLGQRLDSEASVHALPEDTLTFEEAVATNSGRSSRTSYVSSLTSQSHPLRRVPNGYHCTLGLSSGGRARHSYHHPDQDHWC
T1 sequence (P54284 whole entry, further chain): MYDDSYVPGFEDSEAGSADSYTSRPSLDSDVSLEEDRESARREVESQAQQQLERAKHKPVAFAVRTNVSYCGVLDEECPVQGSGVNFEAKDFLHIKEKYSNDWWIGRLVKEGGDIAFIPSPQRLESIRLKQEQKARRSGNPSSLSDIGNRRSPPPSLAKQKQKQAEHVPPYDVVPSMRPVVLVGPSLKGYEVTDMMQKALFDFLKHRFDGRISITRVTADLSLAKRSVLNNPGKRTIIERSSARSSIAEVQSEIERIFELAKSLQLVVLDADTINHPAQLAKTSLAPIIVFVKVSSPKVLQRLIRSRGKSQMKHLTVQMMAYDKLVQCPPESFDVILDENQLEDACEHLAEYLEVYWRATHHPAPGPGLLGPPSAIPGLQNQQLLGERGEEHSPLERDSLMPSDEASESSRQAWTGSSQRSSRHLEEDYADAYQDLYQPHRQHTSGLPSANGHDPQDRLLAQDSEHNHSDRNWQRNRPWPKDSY
T1 sequence (P54289 25-1103, further chain): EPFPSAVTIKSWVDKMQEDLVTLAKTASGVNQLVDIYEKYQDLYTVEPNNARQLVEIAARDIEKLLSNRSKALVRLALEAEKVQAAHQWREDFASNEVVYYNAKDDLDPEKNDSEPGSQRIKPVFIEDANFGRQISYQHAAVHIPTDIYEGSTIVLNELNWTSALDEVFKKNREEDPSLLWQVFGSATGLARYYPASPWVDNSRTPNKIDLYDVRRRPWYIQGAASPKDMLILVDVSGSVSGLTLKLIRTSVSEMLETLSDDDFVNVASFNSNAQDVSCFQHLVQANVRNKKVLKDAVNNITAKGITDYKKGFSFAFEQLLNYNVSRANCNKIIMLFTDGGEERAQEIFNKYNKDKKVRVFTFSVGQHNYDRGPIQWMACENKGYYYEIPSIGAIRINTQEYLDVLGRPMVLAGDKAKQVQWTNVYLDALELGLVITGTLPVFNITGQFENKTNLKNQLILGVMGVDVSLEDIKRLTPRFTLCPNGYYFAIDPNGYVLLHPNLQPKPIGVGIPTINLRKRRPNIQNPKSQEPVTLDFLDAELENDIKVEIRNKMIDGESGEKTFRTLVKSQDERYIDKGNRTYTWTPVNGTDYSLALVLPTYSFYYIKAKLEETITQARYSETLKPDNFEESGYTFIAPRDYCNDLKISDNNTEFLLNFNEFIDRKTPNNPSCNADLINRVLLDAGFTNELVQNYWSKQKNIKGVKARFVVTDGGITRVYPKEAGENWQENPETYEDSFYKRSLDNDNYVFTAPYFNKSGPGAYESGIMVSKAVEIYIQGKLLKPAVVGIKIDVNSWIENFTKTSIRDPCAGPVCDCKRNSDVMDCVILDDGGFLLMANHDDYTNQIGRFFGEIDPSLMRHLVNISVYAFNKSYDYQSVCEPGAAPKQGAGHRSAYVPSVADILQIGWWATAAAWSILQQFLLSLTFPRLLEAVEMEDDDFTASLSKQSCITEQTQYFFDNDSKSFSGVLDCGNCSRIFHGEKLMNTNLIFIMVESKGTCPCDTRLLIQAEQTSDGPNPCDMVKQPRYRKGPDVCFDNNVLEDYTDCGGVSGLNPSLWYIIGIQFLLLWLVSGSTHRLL

Cc1c(-c2ccc(Cl)cn2)c(C(=O)N2CC[S+]([O-])C(C)(C)C2)n(C(C)C)c1C(F)(F)F (stereo not drawn) [Example 130, [3-(5-Chloro-pyridin-2-yl)-1-isopropyl-4-methyl-5-(trifluoromethyl)-1H-pyrrol-2-yl]-(2,2-dimethyl-1-oxo-[1,4]thiazinan-4-yl)-methanone]
inhibition at 3 µM: 40 to 75%

Cc1c(-c2ccc(Cl)cc2)c(C(=O)N2CCN(C(=O)NC(C)(C)C)CC2)n(C(C)C)c1C(F)(F)F [Example 131, N-tert-Butyl-4-[3-(4-chlorophenyl)-1-isopropyl-4-methyl-5-(trifluoromethyl)-1H-pyrrole-2-carbonyl]-piperazine-1-carboxylic acid amide]
inhibition at 3 µM: 75 to 95%

Cc1c(-c2ccc(Cl)cc2)c(C(=O)N(C)C(CO)CC(C)C)n(C(C)C)c1C(F)(F)F (stereo not drawn) [Example 132, 3-(4-Chlorophenyl)-N-[1-(hydroxymethyl)-3-methyl-butyl]-1-isopropyl-N,4-dimethyl-5-(trifluoromethyl)-1H-pyrrole-2-carboxylic acid amide]
inhibition at 3 µM: 40 to 75%

Cc1c(-c2ccc(Cl)cc2)c(C(=O)N(C)C(C)C(=O)NC(C)(C)C)n(C(C)C)c1C(F)(F)F (stereo not drawn) [Example 133, N-[1-(tert-Butyl-carbamoyl)-ethyl]-3-(4-chlorophenyl)-1-isopropyl-N,4-dimethyl-5-(trifluoromethyl)-1H-pyrrole-2-carboxylic acid amide]
inhibition at 3 µM: 40 to 75%

Cc1c(-c2ccc(Cl)cn2)c(C(=O)N(C)C2CCNCC2(C)C)n(C(C)C)c1C(F)(F)F (stereo not drawn) [Example 134, 3-(5-Chloro-pyridin-2-yl)-N-(3,3-dimethyl-piperidin-4-yl)-1-isopropyl-N,4-dimethyl-5-(trifluoromethyl)-1H-pyrrole-2-carboxylic acid amide]
inhibition at 3 µM: 40 to 75%

Cc1c(-c2ccc(Cl)cc2)c(C(=O)N(C)C2CCNCC2(C)C)n(C(C)C)c1C(F)(F)F (stereo not drawn) [Example 135, 3-(4-Chlorophenyl)-N-(3,3-dimethyl-piperidin-4-yl)-1-isopropyl-N,4-dimethyl-5-(trifluoromethyl)-1H-pyrrole-2-carboxylic acid amide]
inhibition at 3 µM: 40 to 75%
